In publication PMC10620772, “Design, synthesis, and biological evaluation of new pyrimidine-5-carbonitrile derivatives as novel anti-cancer, dual EGFR^WT/COX-2 inhibitors with docking studies” (RSC Advances, 2023):

Experiments:
Test in all cases: NCI60 antitumor screening
Type in all cases: cell-based, human
[1] = tested on: 786–0; settings: Homo sapiens; 10 μM single dose; 786–0 (renal cancer); read-out: growth inhibition percent (GI%)
[2] = tested on: NCI-H460; settings: Homo sapiens; 10 μM single dose; NCI-H460 (non-small cell lung cancer); read-out: growth inhibition percent (GI%)
[3] = tested on: MDA-MB-468; settings: Homo sapiens; 10 μM single dose; MDA-MB-468 (breast cancer); read-out: growth inhibition percent (GI%)
[4] = tested on: MOLT-4; settings: Homo sapiens; 10 μM single dose; MOLT-4 (leukaemia); read-out: growth inhibition percent (GI%)
[5] = tested on: HOP-92; settings: Homo sapiens; 10 μM single dose; HOP-92 (non-small cell lung cancer); read-out: growth inhibition percent (GI%)
[6] = tested on: BT-549; settings: Homo sapiens; 10 μM single dose; BT-549 (breast cancer); read-out: growth inhibition percent (GI%)
[7] = tested on: HCT-116; settings: Homo sapiens; 10 μM single dose; HCT-116 (colon cancer); read-out: growth inhibition percent (GI%)
[8] = tested on: OVCAR-5; settings: Homo sapiens; 10 μM single dose; OVCAR-5 (ovarian cancer); read-out: growth inhibition percent (GI%)
[9] = tested on: NCI-H522; settings: Homo sapiens; 10 μM single dose; NCI-H522 (non-small cell lung cancer); read-out: growth inhibition percent (GI%)
[10] = tested on: DU-145; settings: Homo sapiens, DU-145; read-out: growth inhibition percent (GI%)
[11] = tested on: OVCAR-3; settings: Homo sapiens; 10 μM single dose; OVCAR-3 (ovarian cancer); read-out: growth inhibition percent (GI%)
[12] = tested on: HS 578T; settings: Homo sapiens; 10 μM single dose; HS 578T (breast cancer); read-out: growth inhibition percent (GI%)
[13] = tested on: M14; settings: Homo sapiens; 10 μM single dose; M14 (melanoma); read-out: growth inhibition percent (GI%)
[14] = tested on: MDA-MB-435; settings: Homo sapiens; 10 μM single dose; MDA-MB-435 (melanoma); read-out: growth inhibition percent (GI%)
[15] = tested on: NCI-H23; settings: Homo sapiens; 10 μM single dose; NCI-H23 (non-small cell lung cancer); read-out: growth inhibition percent (GI%)
[16] = tested on: RPMI-8226; settings: Homo sapiens; 10 μM single dose; RPMI-8226 (leukaemia); read-out: growth inhibition percent (GI%)
[17] = tested on: UO-31; settings: Homo sapiens; 10 μM single dose; UO-31 (renal cancer); read-out: growth inhibition percent (GI%)
[18] = tested on: KM12; settings: Homo sapiens; 10 μM single dose; KM12 (colon cancer); read-out: growth inhibition percent (GI%)
[19] = tested on: IGROV1; settings: Homo sapiens, IGROV-1; 10 μM single dose; IGROV1 (ovarian cancer); read-out: growth inhibition percent (GI%)
[20] = tested on: HOP-62; settings: Homo sapiens; 10 μM single dose; HOP-62 (non-small cell lung cancer); read-out: growth inhibition percent (GI%)
[21] = tested on: SF-295; settings: Homo sapiens; 10 μM single dose; SF-295 (CNS cancer); read-out: growth inhibition percent (GI%)
[22] = tested on: OVCAR-4; settings: Homo sapiens; 10 μM single dose; OVCAR-4 (ovarian cancer); read-out: growth inhibition percent (GI%)
[23] = tested on: SW-620; settings: Homo sapiens; 10 μM single dose; SW-620 (colon cancer); read-out: growth inhibition percent (GI%)
[24] = tested on: HCT-15; settings: Homo sapiens; 10 μM single dose; HCT-15 (colon cancer); read-out: growth inhibition percent (GI%)
[25] = tested on: U251; settings: Homo sapiens, U-251; 10 μM single dose; U251 (CNS cancer); read-out: growth inhibition percent (GI%)
[26] = tested on: HT29; settings: Homo sapiens, HT-29; 10 μM single dose; HT29 (colon cancer); read-out: growth inhibition percent (GI%)
[27] = tested on: A549/ATCC; settings: Homo sapiens; 10 μM single dose; A549/ATCC (non-small cell lung cancer); read-out: growth inhibition percent (GI%)
[28] = tested on: T-47D; settings: Homo sapiens, T47D; 10 μM single dose; T-47D (breast cancer); read-out: growth inhibition percent (GI%)
[29] = tested on: CCRF-CEM; settings: Homo sapiens; 10 μM single dose; CCRF-CEM (leukaemia); read-out: growth inhibition percent (GI%)
[30] = tested on: SK-MEL-2; settings: Homo sapiens; 10 μM single dose; SK-MEL-2 (melanoma); read-out: growth inhibition percent (GI%)
[31] = tested on: UACC-62; settings: Homo sapiens; 10 μM single dose; UACC-62 (melanoma); read-out: growth inhibition percent (GI%)
[32] = tested on: SN12C; settings: Homo sapiens; 10 μM single dose; SN12C (renal cancer); read-out: growth inhibition percent (GI%)
[33] = tested on: EKVX; settings: Homo sapiens; 10 μM single dose; EKVX (non-small cell lung cancer); read-out: growth inhibition percent (GI%)
[34] = tested on: K-562; settings: Homo sapiens; 10 μM single dose; (leukaemia); read-out: growth inhibition percent (GI%)
[35] = tested on: MALME-3M; settings: Homo sapiens; 10 μM single dose; MALME-3M (melanoma); read-out: growth inhibition percent (GI%)
[36] = tested on: HCC-2998; settings: Homo sapiens; 10 μM single dose; HCC-2998 (colon cancer); read-out: growth inhibition percent (GI%)
[37] = tested on: SNB-75; settings: Homo sapiens; 10 μM single dose; SNB-75 (CNS cancer); read-out: growth inhibition percent (GI%)
[38] = tested on: PC-3; settings: Homo sapiens; 10 μM single dose; PC-3 (prostate cancer); read-out: growth inhibition percent (GI%)
[39] = tested on: NCI-H226; settings: Homo sapiens; 10 μM single dose; NCI-H226 (non-small cell lung cancer); read-out: growth inhibition percent (GI%)

`Cc1ccc(CSc2nc(-c3ccc(F)cc3)c(C#N)c(N3CCNCC3)n2)cc1` [4h, 4-(4-Fluorophenyl)-2-((4-methylbenzyl)thio)-6-(piperazin-1-yl)pyrimidine-5-carbonitrile] showed an inhibition at 10 µM [1] of less than 10%, an inhibition at 10 µM [2] of less than 10% and an inhibition at 10 µM [3] of less than 10%. The inhibition at 10 µM [4] was less than 10%, the inhibition at 10 µM [5] was less than 10% and the inhibition at 10 µM [6] was less than 10%. For the same compound, the inhibition at 10 µM [7] was less than 10%, the inhibition at 10 µM [8] was less than 10% and the inhibition at 10 µM [9] was less than 10%. It also gave an inhibition at 10 µM [10] of less than 10%, an inhibition at 10 µM [11] of less than 10% and an inhibition at 10 µM [12] of 10.1%. The inhibition at 10 µM [13] was less than 10%, the inhibition at 10 µM [14] was less than 10% and the inhibition at 10 µM [15] was less than 10%. It also gave an inhibition at 10 µM [16] of less than 10%, an inhibition at 10 µM [17] of 12.1% and an inhibition at 10 µM [18] of less than 10%. The inhibition at 10 µM [19] was less than 10%, the inhibition at 10 µM [20] was less than 10% and the inhibition at 10 µM [21] was less than 10%. It also gave an inhibition at 10 µM [22] of less than 10%, an inhibition at 10 µM [23] of less than 10% and an inhibition at 10 µM [24] of less than 10%. The inhibition at 10 µM [25] was less than 10%, the inhibition at 10 µM [26] was less than 10% and the inhibition at 10 µM [27] was less than 10%. The inhibition at 10 µM [28] was less than 10%, the inhibition at 10 µM [29] was less than 10% and the inhibition at 10 µM [30] was less than 10%. It also gave an inhibition at 10 µM [31] of less than 10%, an inhibition at 10 µM [32] of less than 10% and an inhibition at 10 µM [33] of less than 10%. The inhibition at 10 µM [34] was less than 10%, the inhibition at 10 µM [35] was less than 10% and the inhibition at 10 µM [36] was less than 10%. The inhibition at 10 µM [37] was 19.5%, the inhibition at 10 µM [38] was less than 10% and the inhibition at 10 µM [39] was less than 10%.
